The results in this text go back to patent US5889013A, “Pyrimidine acyclonucleoside derivatives” (priority 1994, dated 1999).

One data set deals with HIV-1 (HTLV-IIIB strain). Briefly: Inhibitory activity for HIV-induced cytopathogenicity (MT-4 cells, MTT method). To be noted: Human immunodeficiency virus 1, IIIB, MT4, 144 h, read-out: 50% inhibitory concentration of HIV infection. The class given is cell-based. Here is the method:
(§1) In RPMI 1640 culture medium supplemented with 10% heat-inactivated fetal bovine serum, 2 mM of L-glutamine, 100 U/mL of penicillin G and 100 μg/mL of streptomycin, MT-4 cells (HTLV-1 transformed T4-cell line) at a concentration of 1×10^4 /well in a flat-bottom, microtiter plate were infected with 500 TCID50 of HIV-1 (HTLV-IIIB strain). Immediately after virus infection, sample serially diluted with culture medium from stock solution prepared in dimethyl sulfoxide was added to each well in quadriplicate. After 6 days incubation at 37° C., the viability of mock and HIV-infected cells was determined by the 3-(4,5-dimethylthiazol-2-yl)-2,5-diphenyltetrazolium bromide (MTT) method. And also, the cytotoxicity of sample to MT-4 cells not infected with HIV was assessed in parallel with its antiviral activity under the same way as above.
On the technique in general: Cytopathic effects are the visible damage that an infection or toxin causes in cultured cells.

A short description of data set [1]: Cytotoxicity to MT-4 cells not infected with HIV (MTT method). Type of data set: cell-based. The following applies: human; MT-4 cells not infected with HIV, 6 days, 37° C., MTT; read-out: 50% cytotoxic concentration to MT-4 cells. Here is the method: as §1
(Tetrazolium assays rely on reduction of a dye to a coloured formazan, in cell work by metabolically active cells.)

Turning to `CCc1c([Se]c2cc(C)cc(C)c2)n(COCCO)c(=S)[nH]c1=O` [Compound 3, 6-[(3,5-dimethylphenyl)selenenyl]-5-ethyl-1-[(2-hydroxyethoxy)methyl]-2-thiouracil], in the data set on HIV-1 (HTLV-IIIB strain), the IC50 worked out at 30 nM. Moreover, the CC50 at 144 h in data set [1] was 32.5 µM.

For `CC(C)c1c([Se]c2ccccc2)n(COCc2ccccc2)c(=S)[nH]c1=O` [Compound 26, 1-[(benzyloxy)methyl]-5-isopropyl-6-(phenylselenenyl)-2-thiouracil], in the data set on HIV-1 (HTLV-IIIB strain), the IC50 was determined as 0.7 nM. In addition, in data set [1], the CC50 at 144 h stood at 30.2 µM.

Consider `CCOCn1c([Se]c2cc(C)cc(C)c2)c(CC)c(=O)[nH]c1=O` [Compound 30, 6-[(3,5-dimethylphenyl)selenenyl]-1-(ethoxymethyl)-5-etlyluracil], for which the IC50 in the data set with HIV-1 (HTLV-IIIB strain) came to 0.6 nM. The CC50 at 144 h in data set [1] stood at 28.9 µM.

Take `Cc1cccc([Se]c2c(C(C)C)c(=O)[nH]c(=O)n2COCCO)c1` [Compound 11, 1-[(2-hydroxyethoxy)methyl]-5-isopropyl-6-[(3-methylphenyl)-selenenyl]uracil]: in the data set with HIV-1 (HTLV-IIIB strain), the IC50 came out at 15 nM. In addition, the CC50 at 144 h in data set [1] was found to be 30.5 µM.

For the molecule `CCOCn1c([Se]c2cc(F)cc(F)c2)c(CC)c(=O)[nH]c1=S` [Compound 18, 6-[(3,5-difluorophenyl)selenenyl]-1-(ethoxymethyl)-5-ethyl-2-thiouracil], in the data set on HIV-1 (HTLV-IIIB strain), the IC50 worked out at 14 nM. Moreover, the CC50 at 144 h in data set [1] amounted to 7.8 µM.

With `CCc1c([Se]c2cc(C)cc(C)c2)n(CCCc2ccccc2)c(=O)[nH]c1=O` [Compound 74, 6-[(3,5-dimethylphenyl)selenenyl]-5-ethyl-1-(3-phenylpropyl)-uracil], in the data set with HIV-1 (HTLV-IIIB strain), the IC50 was found to be 8 nM. The CC50 at 144 h in data set [1] was 27.7 µM.

For the molecule `Cc1cc(C)cc([Se]c2c(C(C)C)c(=O)[nH]c(=O)n2COCc2ccccc2)c1` [Compound 54, 1-[(benzyloxy)methyl]-6-[(3,5-dimethylphenyl)selenenyl]-5-isopropyluracil], the IC50 with HIV-1 (HTLV-IIIB strain) turned out to be 0.021 nM. Also, the CC50 at 144 h in data set [1] turned out to be 30.2 µM.

Consider `Cc1cc(C)cc([Se]c2c(C(C)C)c(=O)[nH]c(=O)n2CCCc2ccccc2)c1` [Compound 86, 6-[(3,5-dimethylphenyl)selenenyl]-5-isopropyl-1-(3-phenylpropyl)-uracil], for which, in the data set with HIV-1 (HTLV-IIIB strain), the IC50 is 0.6 nM. Further, the CC50 at 144 h in data set [1] turned out to be 26.9 µM.

For `CCOCn1c([Se]c2ccccc2)c(C(C)C)c(=O)[nH]c1=S` [Compound 22, 1-(ethoxymethyl)-5-isopropyl-6-(phenylselenenyl)-2-thiouracil], the IC50 in the data set on HIV-1 (HTLV-IIIB strain) turned out to be 1.5 nM. The CC50 at 144 h in data set [1] was determined as 30.1 µM.

In the case of `Cc1cccc([Se]c2c(C(C)C)c(=O)[nH]c(=S)n2COCCO)c1` [Compound 5, 1-[(2-hydroxyethoxy)methyl]-5-isopropyl-6-[(3-methylphenyl)-selenenyl]-2-thiouracil], in the data set on HIV-1 (HTLV-IIIB strain), the IC50 worked out at 38 nM. Also, the CC50 at 144 h in data set [1] was 31.7 µM.

For the molecule `CCc1c([Se]c2cc(C)cc(C)c2)n(COCc2ccccc2)c(=O)[nH]c1=O` [Compound 38, 1-[(benzyloxy)methyl]-6-[(3,5-dimethylphenyl)selenenyl]-5-ethyluracil], in the data set on HIV-1 (HTLV-IIIB strain), the IC50 came out at 0.08 nM. Besides, the CC50 at 144 h in data set [1] was found to be 31.7 µM.

On to `CCOCn1c([Se]c2cc(F)cc(F)c2)c(CC)c(=O)[nH]c1=O` [Compound 32, 6-[(3,5-difluorophenyl)selenenyl]-1-(ethoxymethyl)-5-ethyluracil], for which the IC50 in the data set on HIV-1 (HTLV-IIIB strain) was determined as 6 nM. In data set [1], the CC50 at 144 h turned out to be 30.6 µM.

Take `Cc1cccc([Se]c2c(C(C)C)c(=O)[nH]c(=O)n2COCc2ccccc2)c1` [Compound 53, 1-[(benzyloxy)methyl]-5-isopropyl-6-[(3-methylphenyl)selenenyl]uracil]: the IC50 in the data set on HIV-1 (HTLV-IIIB strain) is 0.07 nM. Further, the CC50 at 144 h in data set [1] was 30.8 µM.

`CCOCn1c([Se]c2cc(C)cc(C)c2)c(C(C)C)c(=O)[nH]c1=S` [Compound 24, 6-[(3,5-dimethylphenyl)selenenyl]-1-(ethoxymethyl)-5-isopropyl-2-thiouracil]: in the data set with HIV-1 (HTLV-IIIB strain), the IC50 came out at 1.6 nM. In data set [1], the CC50 at 144 h amounted to 31.7 µM.

In the case of `CCOCn1c([Se]c2ccccc2)c(C(C)C)c(=O)[nH]c1=O` [Compound 48, 1-(ethoxymethyl)-5-isopropyl-6-(phenylselenenyl)uracil], the IC50 in the data set with HIV-1 (HTLV-IIIB strain) amounted to 4.2 nM. For the same molecule, the CC50 at 144 h in data set [1] worked out at 32.5 µM.

As to `CCOCn1c([Se]c2cc(C)cc(C)c2)c(CC)c(=O)[nH]c1=S` [Compound 17, 6-[(3,5-dimethylphenyl)selenenyl]-1-(ethoxymethyl)-5-ethyl-2-thiouracil], in the data set with HIV-1 (HTLV-IIIB strain), the IC50 was 8 nM. The CC50 at 144 h in data set [1] amounted to 28.8 µM.

`CCc1c([Se]c2ccccc2)n(CCCc2ccccc2)c(=O)[nH]c1=O` [Compound 73, 5-ethyl-1-(3-phenylpropyl)-6-(phenylselenenyl)uracil]: in the data set on HIV-1 (HTLV-IIIB strain), the IC50 came out at 3 nM. Also, in data set [1], the CC50 at 144 h came out at 26.1 µM.

With `CCOCn1c([Se]c2cc(C)cc(C)c2)c(C(C)C)c(=O)[nH]c1=O` [Compound 50, 6-[(3,5-dimethylphenyl)selenenyl]-1-(ethoxymethyl)-5-isopropyluracil], the IC50 with HIV-1 (HTLV-IIIB strain) came to 0.07 nM. Further, the CC50 at 144 h in data set [1] is 29.2 µM.

As to `CCc1c([Se]c2cccc(C)c2)n(COCc2ccccc2)c(=O)[nH]c1=O` [Compound 37, 1-[(benzyloxy)methyl]-5-ethyl-6-[(3-methylphenyl)selenenyl]uracil], in the data set on HIV-1 (HTLV-IIIB strain), the IC50 was 0.21 nM. In addition, the CC50 at 144 h in data set [1] was determined as 28.8 µM.

On to `CC(C)c1c([Se]c2ccccc2)n(CCCc2ccccc2)c(=O)[nH]c1=O` [Compound 84, 5-isopropyl-1-(3-phenylpropyl)-6-(phenylselenenyl)uracil], for which the IC50 in the data set with HIV-1 (HTLV-IIIB strain) was determined as 8 nM. Besides, the CC50 at 144 h in data set [1] is 28 µM.

In the case of `CCc1c([Se]c2cc(C)cc(C)c2)n(COCCO)c(=O)[nH]c1=O` [Compound 9, 6-[(3,5-dimethylphenyl)selenenyl]-5-ethyl-1-[(2-hydroxyethoxy)-methyl]uracil], the IC50 in the data set with HIV-1 (HTLV-IIIB strain) is 15 nM. The CC50 at 144 h in data set [1] is 34.5 µM.

As to `CCc1c([Se]c2cccc(C)c2)n(COCc2ccccc2)c(=S)[nH]c1=O` [Compound 20, 1-[(benzyloxy)methyl]-5-ethyl-6-[(3-methylphenyl)selenenyl]-2-thiouracil], the IC50 with HIV-1 (HTLV-IIIB strain) stood at 0.8 nM. Also, in data set [1], the CC50 at 144 h is 43.4 µM.

For the molecule `CC(C)c1c([Se]c2ccccc2)n(COCc2ccccc2)c(=O)[nH]c1=O` [Compound 52, 1-[(benzyloxy)methyl]-5-isopropyl-6-(phenylselenenyl)uracil], the IC50 in the data set with HIV-1 (HTLV-IIIB strain) was determined as 0.1 nM. Further, the CC50 at 144 h in data set [1] was determined as 29.4 µM.

For `Cc1cc(C)cc([Se]c2c(C(C)C)c(=O)[nH]c(=S)n2COCc2ccccc2)c1` [Compound 28, 1-[(benzyloxy)methyl]-6-[(3,5-dimethylphenyl)selenenyl]-5-isopropyl-2-thiouracil], the IC50 with HIV-1 (HTLV-IIIB strain) stood at 5.4 nM. Besides, in data set [1], the CC50 at 144 h was 30.9 µM.

Turning to `CCCCn1c([Se]c2ccccc2)c(C(C)C)c(=O)[nH]c1=O` [Compound 81, 1-butyl-5-isopropyl-6-(phenylselenenyl)uracil], the IC50 with HIV-1 (HTLV-IIIB strain) stood at 2 nM. For the same molecule, the CC50 at 144 h in data set [1] was found to be 27.1 µM.

For the molecule `CCOCn1c([Se]c2cccc(C)c2)c(CC)c(=O)[nH]c1=S` [Compound 16, 1-(ethoxymethyl)-5-ethyl-6-[(3-methylphenyl)selenenyl]-2-thiouracil], in the data set with HIV-1 (HTLV-IIIB strain), the IC50 is 8 nM. In data set [1], the CC50 at 144 h is 24.8 µM.

Take `CCOCn1c([Se]c2cccc(C)c2)c(C(C)C)c(=O)[nH]c1=S` [Compound 23, 1-(ethoxymethyl)-5-isopropyl-6-[(3-methylphenyl)selenenyl]-2-thiouracil]: the IC50 in the data set on HIV-1 (HTLV-IIIB strain) is 3.6 nM. In addition, the CC50 at 144 h in data set [1] turned out to be 30.6 µM.

As to `CCOCn1c([Se]c2cc(F)cc(F)c2)c(C(C)C)c(=O)[nH]c1=S` [Compound 25, 6-[(3,5-difluorophenyl)selenenyl]-1-(ethoxymethyl)-5-isopropyl-2-thiouracil], the IC50 with HIV-1 (HTLV-IIIB strain) stood at 27 nM. Besides, in data set [1], the CC50 at 144 h was 19.7 µM.

In the case of `CCOCn1c([Se]c2ccccc2)c(CC)c(=O)[nH]c1=S` [Compound 15, 1-(ethoxymethyl)-5-ethyl-6-(phenylselenenyl)-2-thiouracil], the IC50 in the data set with HIV-1 (HTLV-IIIB strain) is 24 nM. The CC50 at 144 h in data set [1] amounted to 26.1 µM.

With `CCc1c([Se]c2cccc(C)c2)n(COCCO)c(=S)[nH]c1=O` [Compound 2, 5-ethyl-1-[(2-hydroxyethoxy)methyl]-6-[(3-methylphenyl)selenenyl]-2-thiouracil], the IC50 in the data set on HIV-1 (HTLV-IIIB strain) turned out to be 40 nM. In addition, the CC50 at 144 h in data set [1] was 32 µM.

Take `CCc1c([Se]c2ccccc2)n(COCc2ccccc2)c(=S)[nH]c1=O` [Compound 19, 1-[(benzyloxy)methyl)-5-ethyl-6-(phenylselenenyl)-2-thiouracil]: the IC50 with HIV-1 (HTLV-IIIB strain) came to 4 nM. The CC50 at 144 h in data set [1] turned out to be 25.1 µM.

Regarding `CCCCn1c([Se]c2ccccc2)c(CC)c(=O)[nH]c1=O` [Compound 64, 1-butyl-5-ethyl-6-(phenylselenenyl)uracil], the IC50 in the data set with HIV-1 (HTLV-IIIB strain) came to 40 nM. Besides, in data set [1], the CC50 at 144 h amounted to 27.3 µM.

For the molecule `CCOCn1c([Se]c2cccc(C)c2)c(C(C)C)c(=O)[nH]c1=O` [Compound 49, 1-(ethoxymethyl)-5-isopropyl-6-[(3-methylphenyl)selenenyl]uracil], the IC50 in the data set with HIV-1 (HTLV-IIIB strain) was 0.7 nM. Further, the CC50 at 144 h in data set [1] amounted to 29.2 µM.

Take `CCc1c([Se]c2cc(C)cc(C)c2)n(COCc2ccccc2)c(=S)[nH]c1=O` [Compound 21, 1-[(benzyloxy)methyl]-6-[(3,5-dimethylphenyl)selenenyl]-5-ethyl-2-thiouracil]: the IC50 in the data set with HIV-1 (HTLV-IIIB strain) amounted to 1.7 nM. Also, the CC50 at 144 h in data set [1] was determined as 24.1 µM.
